Data from article PMC2263054, “Functional evolution of the vitamin D and pregnane X receptors” (BMC Evolutionary Biology, 2007).
Where two headings read alike, the source gives them in different places.

Legend:
PXR = test: zebrafish in vivo liver transcription, semi-quantitative RT-PCR: PXR
Method: (§1) Adult zebrafish were purchased from a commercial fish supplier and acclimatized for at least two-weeks in 20 L tanks with flow-through freshwater at 22°C. A single dose of 15 mg/kg of 5α-cyprinol, 5β-cyprinol 27-sulfate, 5α-scymnol or 5β-scymnol-27 sulfate, dissolved in saline, was injected intraperitoneally. A control group was injected with saline. After 48 hr, the animals were decapitated and livers of three fish (n = 5 each group) were removed, pooled and weighed, totalizing 15 fish per group. Fish were not fed throughout the experimental period. […].
(§2) To study the transcription of CYP3C1, ABCB5, PXR, GAPDH and β-actin genes in zebrafish, initial fragments of these genes were identified (Genbank: AW202769, Genbank: BQ284593, Genbank: AAM22215, Genbank: BC083506, Genbank: AF057040, respectively). The PCR primers for CYP3C1 were designed using MacVector Software and primers for MDR1 were designed using Primer 3 Software (Whitehead Institute for Biomedical Research; [75]). Primer pairs for amplifying CYP3C1 fragment were 5'-[…]-3' (sense) and 5'-[…]-3' (antisense) and for amplifying ABCB5 were 5'-[…]-3' (sense) and 5'-[…]-3' (antisense). The PCR primers for PXR were 5'-[…]-3' (sense) and 5'-[…]-3' (antisense), for amplifying GAPDH were 5'-[…]-3' (sense) and 5' […] 3' (antisense) and for β-actin were 5'-[…]-3' (sense) and 5'-[…]-3' (antisense). RNA was isolated using Trizol (Invitrogen) according to manufacturer's instructions. Purity and concentration of RNA of each sample were verified at 260 nm. The RNA integrity was checked by non-denaturing gel electrophoresis using 1 μg of total RNA in each sample.
(§3) Two micrograms of total RNA were reversed transcribed using Ominiscript RT Kit (Qiagen, Valencia, CA, USA). cDNA concentration was checked at 260 nm, and the amount adjusted to 1 μg to perform semi-quantitative RT-PCR. The expected size of the PXR, Cyp3C1, abcb5, GAPDH and β-actin fragments were 577, 477, 218, 234 and 550 bp, respectively. Biotools DNA polymerase (Biotools B&M Labs, S.A., Madrid, Spain) kit was used for the PCR reaction using a thermocycler Personal Mastercycler (Eppendörf) with the following PCR program: 5 cycles of 94°C for 5 s, 72°C for 35 s; 5 cycles of 94°C for 5 s, 70°C for 10 s, 72°C for 35 s; and 23, 24, 35, 15 and 24 cycles (PXR, Cyp3C1, abcb5, GAPDH and β-actin, respectively) of 94°C for 5 s, 61, 54, 48, 49 and 61°C for 10 s (PXR, Cyp3C1, abcb5, GAPDH and β-actin, respectively), and 72°C for 35 s. The PXR, CYP3C1, ABCB5 and GAPDH transcript levels were quantified using Gel-Quant™ (Multiplexed Biotechologies) and β-actin was used to normalize the data. The Shapiro-Wilk W test was used to evaluate normality. When data were parametric the analysis was performed using Student t test; otherwise Mann Whitney U test was applied. […]

CYP3C1 = test: zebrafish in vivo liver transcription, semi-quantitative RT-PCR: CYP3C1
Method: as §1, §2, §3

β-actin = test: zebrafish in vivo liver transcription, semi-quantitative RT-PCR: β-actin
Method: as §1, §2, §3

Xenopus laevis VDR = target: T1, Xenopus laevis VDR (Xenopus laevis, UniProt O13124); test: luciferase reporter transactivation assay in HepG2-NTCP cells, GAL4/xlVDR LBD chimera with tk-UAS-Luc; type: cell-based
T1 sequence (O13124 90-422): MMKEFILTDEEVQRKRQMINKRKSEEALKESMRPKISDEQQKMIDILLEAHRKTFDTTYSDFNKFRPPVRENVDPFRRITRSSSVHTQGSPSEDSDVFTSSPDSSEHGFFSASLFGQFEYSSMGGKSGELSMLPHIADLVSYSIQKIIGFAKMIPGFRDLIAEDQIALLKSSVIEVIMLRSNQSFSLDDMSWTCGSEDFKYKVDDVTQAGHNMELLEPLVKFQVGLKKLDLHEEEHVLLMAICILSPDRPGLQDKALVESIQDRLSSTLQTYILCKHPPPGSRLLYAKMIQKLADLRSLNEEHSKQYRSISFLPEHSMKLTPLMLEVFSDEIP

Sea lamprey VDR = target: T2, Sea lamprey VDR (Petromyzon marinus, UniProt Q7ZZY9); type: cell-based
T2 sequence (Q7ZZY9 92-406): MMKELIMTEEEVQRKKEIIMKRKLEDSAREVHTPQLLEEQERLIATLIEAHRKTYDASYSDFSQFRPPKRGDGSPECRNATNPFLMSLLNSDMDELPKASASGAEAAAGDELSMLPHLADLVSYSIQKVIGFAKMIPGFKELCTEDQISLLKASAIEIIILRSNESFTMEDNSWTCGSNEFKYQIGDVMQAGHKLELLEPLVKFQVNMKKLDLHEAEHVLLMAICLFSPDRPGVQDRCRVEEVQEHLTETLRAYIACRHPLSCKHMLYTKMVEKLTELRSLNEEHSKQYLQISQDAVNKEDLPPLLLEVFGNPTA

[1] = test system: glyceraldehyde 3-phosphate dehydrogenase (GAPDH); test: zebrafish in vivo liver transcription, semi-quantitative RT-PCR: GAPDH; details: 15 mg/kg intraperitoneally, single dose, 48 hr
Method: Adult zebrafish were purchased from a commercial fish supplier and acclimatized for at least two-weeks in 20 L tanks with flow-through freshwater at 22°C. A single dose of 15 mg/kg of 5α-cyprinol, 5β-cyprinol 27-sulfate, 5α-scymnol or 5β-scymnol-27 sulfate, dissolved in saline, was injected intraperitoneally. A control group was injected with saline. After 48 hr, the animals were decapitated and livers of three fish (n = 5 each group) were removed, pooled and weighed, totalizing 15 fish per group. Fish were not fed throughout the experimental period.
as §2, with “The PCR primers for CYP3C1 were designed using MacVector Software and primers for MDR1 were designed using Primer 3 Software (Whitehead Institute for Biomedical Research; [75]).” left out, “Purity and concentration of RNA of each sample were verified at 260 nm.” left out
The PXR, CYP3C1, ABCB5 and GAPDH transcript levels were quantified using Gel-Quant™ (Multiplexed Biotechologies) and β-actin was used to normalize the data. The Shapiro-Wilk W test was used to evaluate normality. When data were parametric the analysis was performed using Student t test; otherwise Mann Whitney U test was applied.

zebrafish PXR [2] = details: cited from earlier work
Zebrafish VDR = target: T3, Zebrafish VDR (Danio rerio, UniProt Q9PTN2); test: luciferase reporter transactivation assay in HepG2-NTCP cells, GAL4/zfVDR LBD chimera with tk-UAS-Luc; type: cell-based
T3 sequence (Q9PTN2 121-453): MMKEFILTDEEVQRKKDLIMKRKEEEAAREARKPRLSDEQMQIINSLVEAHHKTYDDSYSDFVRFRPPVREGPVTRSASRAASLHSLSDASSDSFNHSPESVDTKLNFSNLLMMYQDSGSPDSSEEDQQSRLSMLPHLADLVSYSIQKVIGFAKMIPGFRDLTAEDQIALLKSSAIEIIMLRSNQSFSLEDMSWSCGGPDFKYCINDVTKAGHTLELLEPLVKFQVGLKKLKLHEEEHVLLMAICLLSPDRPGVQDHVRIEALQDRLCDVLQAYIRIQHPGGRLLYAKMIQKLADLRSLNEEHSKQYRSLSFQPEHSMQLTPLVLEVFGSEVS

[3] = test system: MDR1 (tentatively classified as ABCB5 in zebrafish); test: zebrafish in vivo liver transcription, semi-quantitative RT-PCR: MDR1
Method: as §1, §2, §3

[4] = test system: flurbiprofen 4-hydroxylation activity (CYP2C-like activity)
zebrafish PXR [5] = test system: zebrafish PXR
[6] = test system: testosterone 6β-hydroxylation activity (CYP3A-like activity); test: in vitro; details: zebrafish
Method: (§4) The cells are cultured at 26°C in ambient atmosphere.
(§5) 100 μL of sample, calibration standard, or quality material standard were pipetted into separate microcentrifuge tubes and mixed with 100 μL of methanol. Samples were vortexed and centrifuged at 13,000 rpm for 4 min. The supernatant was then injected into the HPLC.
(§6) The flow rate was 1.2 mL/min and total run time was 25 min.

[7] = test system: ethoxyresorufin O-deethylase (EROD) activity (CYP1A-like activity); test: in vitro
Method: as §4

[8] = test system: testosterone 6β-hydroxylation; test: testosterone hydroxylation (HPLC) in sea lamprey primary hepatocytes; type: cell-based; details: concentration ranges per compound
Method: as §5, §6

EROD activity = test: EROD assay in sea lamprey primary hepatocytes; details: 24–48 hr exposure
[9] = zebrafish, 15 mg/kg intraperitoneally, single dose, 48 hr
[10] = screening for activators, at least three concentrations of each drug

CC(CCC(O)C(CO)COS(=O)(=O)O)C1CCC2C3C(O)CC4CC(O)CCC4(C)C3CC(O)C12C (stereo not drawn) [5β-scymnol 27-sulfate]
liver transcription of PXR (PXR; [9]): 0.75 ± 0.33 arbitrary units normalized to β-actin | liver transcription of CYP3C1 (CYP3C1; [9]): 1.33 ± 0.58 arbitrary units normalized to β-actin | liver transcription of β-actin (β-actin; [9]): 39.3 ± 17.5 arbitrary units | Effect on Xenopus laevis VDR (Xenopus laevis VDR; [10]): No effect | Effect on sea lamprey VDR (Sea lamprey VDR; [10]): No effect | liver transcription of GAPDH [1]: 1.08 ± 0.50 arbitrary units normalized to β-actin | activity at recombinant zebrafish PXR (zebrafish PXR [2]; ref [29],[53]): weaker activator of recombinant zebrafish PXR | Effect on zebrafish VDR (Zebrafish VDR; [10]): No effect | liver transcription of MDR1 (ABCB5) [3, 9]: 1.50 ± 0.58 arbitrary units normalized to β-actin

C[C@H](CCC(O)C(CO)CO)[C@H]1CC[C@H]2[C@@H]3[C@H](O)C[C@@H]4C[C@H](O)CC[C@]4(C)[C@H]3C[C@H](O)[C@]12C (stereo partly drawn) [5β-scymnol, 5β-cholestan-3α,7α,12α,24,26,27-hexol]
liver transcription of PXR (PXR; ip, 15 mg/kg, 48 h): 0.92 ± 0.38 arbitrary units normalized to β-actin | liver transcription of CYP3C1 (CYP3C1; ip, 15 mg/kg, 48 h): 1.17 ± 0.50 arbitrary units normalized to β-actin | liver transcription of β-actin (β-actin; ip, 15 mg/kg, 48 h): 62.2 ± 21.8 arbitrary units | Effect on Xenopus laevis VDR (Xenopus laevis VDR; [10]): No effect | Effect on sea lamprey VDR (Sea lamprey VDR; [10]): No effect | liver transcription of GAPDH [1]: 1.17 ± 0.58 arbitrary units normalized to β-actin | activity at recombinant zebrafish PXR (zebrafish PXR [2]): both inactive at recombinant zebrafish PXR | Effect on zebrafish VDR (Zebrafish VDR; [10]): No effect | liver transcription of MDR1 (ABCB5) ([3]; ip, 15 mg/kg, 48 h): 1.08 ± 0.17 arbitrary units normalized to β-actin

CCC1(c2ccccc2)C(=O)NC(=O)NC1=O [Phenobarbital]
maximal flurbiprofen 4-hydroxylation activities [4]: greater than 50 nmol/min/mg protein | activation of recombinant zebrafish PXR (zebrafish PXR [5]): all activate recombinant zebrafish PXR | EC50 [6]: 928 ± 109 µM | Effect on Xenopus laevis VDR (Xenopus laevis VDR): No effect | Effect on sea lamprey VDR (Sea lamprey VDR): No effect | effect on EROD activity [7]: found not to affect EROD activity | effect on testosterone 6β-hydroxylation [8]: None of these compounds produced significant increases in testosterone 6β-hydroxylation | Effect on zebrafish VDR (Zebrafish VDR): No effect | effect on EROD activity (EROD activity): did not alter EROD activity
